Assay results published in patent US9045415B2, “Targeting of EWS-FLI1 as anti-tumor therapy” (Georgetown University, priority 2006, dated 2015).
Residues, ends and D or L forms follow the SMILES beside them. *: point of attachment. FITC = O=C1OC2(c3ccc(O)cc3Oc3cc(O)ccc32)c2ccc(NC(=S)*)cc21

Columns and labels:
[1] = system: neuroblastoma SKNAS cells; assay: Monolayer cell growth, neuroblastoma; type: cell-based; conditions: E9RP 10 μM; seven days
Description: (§1) FIGS. 8A-E show E9RP inhibits ESFT cell growth. In FIGS. 8A and 8B, E9RP is the peptide region of RHA (SEQ ID NO:29) fused to the Penetratin peptide (from the Antennapedia homeodomain; SEQ ID NO:34) and contains amino-terminal fluorescein (FITC). […] Neither lipids nor electricity were used for transduction of peptides into cells. Confocal microscopy identified peptide throughout cells with nuclear uptake. Nuclear uptake was confirmed by DAPI staining. […] Cell lines were placed in 96-well plates with either vehicle alone (●), or E9RP (10 μM) on days 0, 3 and 5 (▴). No lipid or other transfection method was utilized. This represents two experiments with similar results. FIG. 8D depicts dose response of ESFT 1 to either wild-type or single amino-acid mutant peptides. (▪) wild-type E9RP, (E9R (SEQ ID NO:29) fused to the Penetratin peptide (SEQ ID NO:34)), (▾)(E9RP (P2A peptide (SEQ ID NO:30) fused to the Penetratin peptide (SEQ ID NO:34)), (▴)E9RP (D5A peptide (SEQ ID NO:31) fused to the Penetratin peptide (SEQ ID NO:34)). Growth normalized to treating cells with the 16 aa Antp sequence alone (SEQ ID NO:34). FIG. 8E is a comparison of wild-type versus mutant peptides in ESFT and NB cells.
(§2) In FIG. 13A, recombinant EWS-FLI1 was treated with NSC635437 for 30 minutes. GST-RHA (630-1020) was added and the complexes were then precipitated with antibody to EWS-FLI1 and Protein G beads. Resolved complexes showing the immunoprecipitated complex control without compound are in lanes 3 (0.1% DMSO) and 5 (0.01% DMSO). […] ESFT TC32 (◯) and neuroblastoma SK-N-AS (▪) were grown for 72 hours in the continuous presence of NSC635437. Cells were incubated in MTT reagent for 4 hours and the dried precipitate was dissolved isopropanol and the absorbance read at 570 nm. Each cell line was standardized to the growth of the DMSO control.
(§3) FIG. 30 provides data to show E9R peptide prevents EWS-FLI1 binding to RHA with specific detrimental effects upon ESFT growth and transformation. […] Scale bar equals 20 μm. […] Only expression of EGFP-E9R in TC71 reduced anchorage independent growth. […] Scale bar equals 20 μm.

[2] = system: ESFT cell lines TC32 (ESFT 1) and 5838 (ESFT 2); assay: Peptide growth inhibition, ESFT cell lines 1 and 2; type: cell-based; conditions: 10 μM on days 0, 3 and 5; seven days
Description: as §1

CBP (aa 1680-1890) = CBP (aa 1680-1890) (Homo sapiens, UniProt Q92793); assay: Competitive ELISA, RHA binding to CBP; conditions: RHA 4 nM, E9RP 0.01-30 μM
CBP (aa 1680-1890), sequence (Q92793 1680-1890): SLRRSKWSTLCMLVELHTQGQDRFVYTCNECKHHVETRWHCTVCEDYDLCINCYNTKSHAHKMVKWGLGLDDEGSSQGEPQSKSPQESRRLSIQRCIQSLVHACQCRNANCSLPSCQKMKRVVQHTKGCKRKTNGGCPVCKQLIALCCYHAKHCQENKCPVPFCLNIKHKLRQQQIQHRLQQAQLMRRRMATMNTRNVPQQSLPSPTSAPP
Description: (§4) E9RP is the peptide region of RHA (E9R; SEQ ID NO: 29) fused to the Penetratin peptide (from the Antennapedia homeodomain; SEQ ID NO: 34). In FIG. 5A, E9RP was used in a competition experiment for blocking binding of RHA to EWS-FLI1. Wells were coated with 500 ng EWS-FLI1. RHA (4 nM) was added on to wells in the presence of E9RP (0.01-30 μM). In FIG. 5B, wells were coated with 500 ng/well recombinant CBP. RHA (4 nM) was added to wells with E9RP (0.01-30 μM).
(§5) E9RP was evaluated for the ability to block RHA from binding to EWS-FLI1 using both competitive ELISA assay and solution immunoprecipitation assays. In addition, specificity of interaction was evaluated by disrupting EWS-FLI1 binding from RHA without interfering with other RHA binding proteins. Creb-binding protein (CBP, p300) is critical to cellular basal transcription, so it was determined if a peptide that would disrupt EWS-FLI1 binding from RHA could also disrupt CBP binding.

[3] = system: two additional sarcoma cell lines, lacking EWS-FLI1; assay: Peptide growth inhibition, additional sarcoma cell lines; type: cell-based; conditions: data not shown
TC32 cells = assay: Monolayer cell growth (MTT or WST), TC32; type: cell-based; conditions: TC32 monolayer, 10 μM
Description: as §2, §3
FIG. 33 provides data showing YK-4-279 is potent and specific inhibitor of ESFT. […] Cell number was measured by MTT or WST reduction after seven days in culture. […] FIG. 33D cell lines expressing EWS-FLI1 compared to non-EWS-FLI1 malignant cell lines following 3 days in culture to establish the IC50 using WST assay. […] Graph plots level of fluorescence in treated divided by untreated lysate. […] Scale bar equals 200 μm.

RHA binding to EWS-FLI1 [4] = assay: Solution immunoprecipitation of GST-RHA with recombinant EWS-FLI1; design: species or system human
Description: E9RP is the peptide region of RHA (E9R; SEQ ID NO: 29) fused to the Penetratin peptide (from the Antennapedia homeodomain; SEQ ID NO: 34). Immunoprecipitation of GST-RHA using recombinant EWS-FLI1 bound to a FLI1 antibody. […] E9RP is the sequence of aa 823-832 of human RHA that were synthesized.
as §2
Protein lysates and immunoprecipitations were performed as previously published (Uren et al (2005)). Recombinant GST-RHA (647-1075) was prepared from crude bacterial extracts without further purification.
Reagents were developed to block RHA binding to EWS-FLI1 since RHA is necessary for optimal EWS-FLI1 activity. The E9R peptide corresponds to amino acids 823 to 832, located in the proximal HA2 region of RHA (FIG. 29A). A cell-free protein interaction assay was developed to test whether E9R peptide inhibits RHA binding to EWS-FLI1. […] It was determined whether disrupted EWS-FLI1/RHA binding inhibited cell growth.

RHA binding to EWS-FLI1 [5] = assay: Competitive ELISA, RHA binding to EWS-FLI1; conditions: RHA 4 nM, E9RP 0.01-30 μM; read-out: IC50, prevention of RHA binding to EWS-FLI1
Description: as §4, §5

EWS-FLI1 = assay: SPR displacement assay of E9R from EWS-FLI1; type: binding
Description: FIG. 31 provides data showing a small molecule binding to EWS-FLI1 and displaces E9R from EWS-FLI1. […] Aromatic functionalization produced YK-4-279 a para-methoxy derivative of NSC635437. […] A FLI1 antibody complexed EWS-FLI1 and precipitated it from the solution.
An aromatic optimization strategy was used to design analogs to improve upon the activity of NSC635437.

ESFT cells TC71 = assay: Xenografts of TC71 cells transfected with E9R expression plasmids; type: in vivo, mice; conditions: pGE9R vs pGE9R-D5A, 26 days
Description: ESFT cells TC71 were transfected with pGE9R (wild-type sequence peptide (SEQ ID NO: 29)) or pGE9R-D5A (control, mutated peptide; D5A (SEQ ID NO: 31)). In FIG. 10A, fluorescent micrographs of transfected cells after 4 days in culture are presented. […] Bar equals 300 microns. In FIG. 10B, each group contains six mice. Mice legs were measured every 2-3 days. Tumors appeared in 2 weeks. The experiment was terminated after 26 days when the largest tumor caused the mouse to limp. Tumor volumes were calculated according to (D×d2/6)×π formula, where large diameter of tumor mass is D and small diameter is d. 2-way ANOVA analysis, followed by Bonferroni correction for multiple variables, the difference in the two growth curves was highly significant, p=0.016.
The ability of the E9R peptide sequence to prevent ESFT tumorigenesis in a pilot murine xenograft experiment was determined. As a control peptide, the same mutation that prevented wild-type RHA from binding to EWS-FLI1 (D827A, noted in the 10-mer peptide as E9R-D5A) was created. ESFT cells were transfected with either pGE9R or pGE9R-D5A by electroporation. A transfection efficiency of greater than 80% using fluorescent microscopy (FIG. 10A) was observed. […] Every two to three days, each animal's thigh was measured in three dimensions, and tumor volumes were calculated. […]

TC71 (ESFT) cells = assay: Soft-agar anchorage-independent growth, TC71 expressing E9R; type: cell-based
Description: (§6) Plasmids that express E9R fused to enhanced green fluorescent protein (EGFP) were transfected into either Ewing's Sarcoma (TC71) or rhabdomyosarcoma (RP) cells and placed in soft-agar for anchorage-independent growth. The pGE9R plasmid diffusely expressed E9R while the pGCE9R plasmid contained a nuclear export sequence to prevent expressed peptide from entering the nucleus. The transfected cells were placed in soft agar culture for 2 weeks and stained with MTT. When E9R was diffusely expressed, including the nucleus, ESFT (containing EWS-FLI1) soft-agar colony growth was suppressed.
as §3
Since the Antp peptides added to media would not remain in the cells for 2 weeks during soft-agar colony growth, expression peptides were used to provide continuous exposure to peptide. A pair of expression plasmids with cloning sites downstream of the enhanced green fluorescent protein (EGFP) was obtained; the pG plasmid contained no localizing sequence and was expressed throughout the cells (FIG. 9, left panels). The pGC plasmids contained a nuclear export sequence that blocked peptide transport into the nucleus (FIG. 9, right panels). […]

[6] = system: SKNAS (neuroblastoma) cells; assay: Soft-agar anchorage-independent growth, SKNAS expressing E9R; type: cell-based; conditions: expressed E9R
Description: as §3

rhabdomyosarcoma cells = assay: Soft-agar anchorage-independent growth, rhabdomyosarcoma cells expressing E9R; type: cell-based; conditions: E9R expression
Description: as §6
Since the Antp peptides added to media would not remain in the cells for 2 weeks during soft-agar colony growth, expression peptides were used to provide continuous exposure to peptide. A pair of expression plasmids with cloning sites downstream of the enhanced green fluorescent protein (EGFP) was obtained; the pG plasmid contained no localizing sequence and was expressed throughout the cells (FIG. 9, left panels). The pGC plasmids contained a nuclear export sequence that blocked peptide transport into the nucleus (FIG. 9, right panels). The E9R DNA sequence was synthesized and the hybridized oligodeoxynucleotides were inserted into the cloning site downstream of either EGFP or EGFP and nuclear export sequence.

Row | Molecule | cell growth [1] | cell growth [2] | effect upon the binding of CBP (CBP (aa 1680-1890)) | cell growth [3] | ESFT cell growth with fluorescein conjugated peptides (TC32 cells) | IC50 (RHA binding to EWS-FLI1 [4]; GST-RHA (630-1020), read-out: IC50 to prevent complex formation) [nM] | IC50 (RHA binding to EWS-FLI1 [5]) [nM] | binding of E9R to EWS-FLI1 (EWS-FLI1; 32 μM E9R alone) [R.U.] | binding of E9R to EWS-FLI1 (EWS-FLI1; 64 μM E9R alone) [R.U.] | xenograft growth of cells expressing peptide (ESFT cells TC71) | reduction of TC71 colony formation (TC71 (ESFT) cells; E9R expressed as EGFP fusion throughout the cell) [%] | soft agar colony growth (TC71 (ESFT) cells; E9R expressed throughout cells (pGE9R)) | anchorage-independent growth [6] | concentration giving decreased association to 50% (RHA binding to EWS-FLI1 [4]; GST-RHA (647-1075) and full-length EWS-FLI1) [µM] | soft agar colony growth (rhabdomyosarcoma cells)
1 | CC[C@H](C)[C@H](NC(=O)[C@H](CCCCN)NC(=O)[C@@H](NC(=O)[C@H](CCC(N)=O)NC(=O)[C@H](CCCNC(=N)N)NC(=S)Nc1ccc2c(c1)C(=O)OC21c2ccc(O)cc2Oc2cc(O)ccc21)[C@@H](C)CC)C(=O)N[C@@H](Cc1c[nH]c2ccccc12)C(=O)N[C@@H](Cc1ccccc1)C(=O)N[C@@H](CCC(N)=O)C(=O)N[C@@H](CC(N)=O)C(=O)N[C@@H](CCCNC(=N)N)C(=O)N[C@@H](CCCNC(=N)N)C(=O)N[C@@H](CCSC)C(=O)N[C@@H](CCCCN)C(=O)N[C@@H](Cc1c[nH]c2ccccc12)C(=O)N[C@@H](CCCCN)C(=O)N[C@@H](CCCCN)C(=O)N1CCC[C@H]1C(=O)N1CCC[C@H]1C(=O)N1CCC[C@H]1C(=O)N[C@@H](CC(C)C)C(=O)N[C@@H](CC(=O)O)C(=O)N[C@@H](C)C(=O)N[C@H](C(=O)N[C@H](C(=O)N[C@@H](CCC(=O)O)C(=O)N[C@@H](C)C(=O)O)[C@@H](C)CC)C(C)C [E9RP] ({FITC}-RQIKIWFQNRRMKWKKPPPLDAVIEA-OH; C-terminus assumed) | did not affect the growth | inhibited the growth | lacking a dose-dependent effect | not growth inhibited | significantly reduced ESFT cell growth | ~100 | ~200 |  |  |  |  |  |  |  | 
2 | PPPLDAVIEA [E9R, peptide corresponding to aa 823-832 of human RHA] |  |  |  |  |  |  |  | 13 | 17 | reduces ESFT xenografts growth | 95 | suppressed | not affected | 0.1 | not reduced
